Reference: ChEMBL document CHEMBL3046155, “Synthesis and antimicrobial activity of 7-alkoxyhesperetin derivatives” (2011)
Converted amounts (≈) assume the structure as drawn. The source made the active and inactive calls. The rule behind the calls is not given here.

Tests used:
Assay type in all cases: functional
Proteus vulgaris = test: Antibacterial activity against Proteus vulgaris ATCC 14153 after 24 hr by two-fold serial dilution test; conditions: ATCC 14153, 24 h
Staphylococcus aureus [1] = test: Antibacterial activity against Staphylococcus aureus ATCC 25923 after 24 hr by two-fold serial dilution test; conditions: ATCC 25923, 24 h
Bacillus subtilis [2] = test: Antibacterial activity against Bacillus subtilis ATCC 9372 after 24 hr by two-fold serial dilution test; conditions: ATCC 9372, 24 h
Escherichia coli [3] = test: Antibacterial activity against Escherichia coli ATCC 25922 after 24 hr by two-fold serial dilution test; conditions: ATCC 25922, 24 h
Escherichia coli [4] = test: Antibacterial activity against Escherichia coli ATCC 25922 at 400 ug/mL after 24 hr by agar well diffusion assay
Staphylococcus aureus [5] = test: Antibacterial activity against Staphylococcus aureus ATCC 25923 at 400 ug/mL after 24 hr by agar well diffusion assay
Bacillus subtilis [6] = test: Antibacterial activity against Bacillus subtilis ATCC 9372 at 400 ug/mL after 24 hr by agar well diffusion assay

SMILES | MIC (Proteus vulgaris) [µg/mL] | MIC (Staphylococcus aureus [1]) [µg/mL] | MIC (Bacillus subtilis [2]) [µg/mL] | MIC (Escherichia coli [3]) [µg/mL] | diameter of the inhibition zone (DIZ) (Escherichia coli [4]) | diameter of the inhibition zone (DIZ) (Staphylococcus aureus [5]) | diameter of the inhibition zone (DIZ) (Bacillus subtilis [6])
CN[C@@H]1[C@H](O[C@H]2[C@H](O[C@H]3[C@H](O)[C@@H](O)[C@H](N=C(N)N)[C@@H](O)[C@@H]3N=C(N)N)O[C@@H](C)[C@]2(O)C=O)O[C@@H](CO)[C@H](O)[C@H]1O.CN[C@@H]1[C@H](O[C@H]2[C@H](O[C@H]3[C@H](O)[C@@H](O)[C@H](N=C(N)N)[C@@H](O)[C@@H]3N=C(N)N)O[C@@H](C)[C@]2(O)C=O)O[C@@H](CO)[C@H](O)[C@H]1O.O=S(=O)(O)O.O=S(=O)(O)O.O=S(=O)(O)O [STREPTOMYCIN SULFATE] | 3.13 | 25 | 50 | 1.56 | – | – | –
COc1ccc([C@@H]2CC(=O)c3c(O)cc(O)cc3O2)cc1O [HESPERETIN] | 100 (≈ 331 µM) | – | 200 (≈ 662 µM) | – | inactive | inactive | –
COc1ccc([C@@H]2CC(=O)c3c(O)cc(O[C@@H]4O[C@H](CO[C@@H]5O[C@@H](C)[C@H](O)[C@@H](O)[C@H]5O)[C@@H](O)[C@H](O)[C@H]4O)cc3O2)cc1O [HESPERIDIN] | 200 (≈ 328 µM) | – | – | – | inactive | inactive | inactive
CCCCOc1cc(O)c2c(c1)O[C@H](c1ccc(OC)c(O)c1)CC2=O [7-BUTOXYHESPERETIN] | 50 (≈ 140 µM) | 25 (≈ 69.8 µM) | 100 (≈ 279 µM) | 100 (≈ 279 µM) | – | – | –
COc1cc(O)c2c(c1)O[C@H](c1ccc(OC)c(O)c1)CC2=O [7-METHOXYHESPERETIN] | 50 (≈ 158 µM) | 100 (≈ 316 µM) | 200 (≈ 632 µM) | 200 (≈ 632 µM) | – | – | –
CCCCCCCCCCCCOc1cc(O)c2c(c1)O[C@H](c1ccc(OC)c(O)c1)CC2=O [7-DODECYLOXYHESPERETIN] | 12.5 (≈ 26.6 µM) | 6.25 (≈ 13.3 µM) | 50 (≈ 106 µM) | 50 (≈ 106 µM) | – | – | –
CCCCCCCCOc1cc(O)c2c(c1)O[C@H](c1ccc(OC)c(O)c1)CC2=O [7-OCTOXYHESPERETIN] | 25 (≈ 60.3 µM) | 12.5 (≈ 30.2 µM) | 50 (≈ 121 µM) | 25 (≈ 60.3 µM) | – | – | –
